The source of these data is patent publication US20040102364A1, “Backbone cyclized radiolabelled somatostatin analogs” (priority 2001, published 2004).

For assay [1], the target named is rat SST-R4 (Rattus norvegicus, UniProt P30937). Briefly: Subtype selectivity binding, rat SST-R4. How it is done:
(§1) The SST analogs were tested for their potency in inhibition of the binding of ^125I-Tyr^11-SRIF (based on the method described by Raynor et. al., Molecular Pharmacology 43: 838, 1993) to membrane preparations expressing the transmembranal SST receptors (SST-R1, 2, 3, 4 or 5). The receptor preparations used for these tests were either from the cloned human receptors selectively and stably expressed in Chinese Hamster Ovary (CHO) cells or from cell lines naturally expressing the SST-Rs. […] The binding reactions were filtered, the filters were washed and the bound radioactivity was counted in β counter after addition of scintillation solution.
(§2) MPS-30012-02, 30012-08 and 30012-24 were all re-synthesized naked, purified and radiolabelled with ^99mTc. In vitro binding studies on all three ^99mTc compounds was performed. 30012-05, 30012-08 and 30012-24 were screened for subtype selectivity analysis.

The target of assay [2] is rat SST-R2 (Rattus norvegicus, UniProt P30680). Briefly: Subtype selectivity binding, rat SST-R2. As for the experimental part: as §1, §2
The target in assay [3] is rat SST-R1 (Rattus norvegicus, UniProt P28646). The assay is described as follows: Subtype selectivity binding, rat SST-R1. How it is done:
as §1, §2

Assay [4] deals with rat SST-R3 (Rattus norvegicus, UniProt P30936). The assay is described as follows: Subtype selectivity binding, rat SST-R3. How it is done:
as §1, §2

For assay [5], the target named is T1, rat SST-R5 (Rattus norvegicus, UniProt P30938).
T1 sequence (P30938 1-363): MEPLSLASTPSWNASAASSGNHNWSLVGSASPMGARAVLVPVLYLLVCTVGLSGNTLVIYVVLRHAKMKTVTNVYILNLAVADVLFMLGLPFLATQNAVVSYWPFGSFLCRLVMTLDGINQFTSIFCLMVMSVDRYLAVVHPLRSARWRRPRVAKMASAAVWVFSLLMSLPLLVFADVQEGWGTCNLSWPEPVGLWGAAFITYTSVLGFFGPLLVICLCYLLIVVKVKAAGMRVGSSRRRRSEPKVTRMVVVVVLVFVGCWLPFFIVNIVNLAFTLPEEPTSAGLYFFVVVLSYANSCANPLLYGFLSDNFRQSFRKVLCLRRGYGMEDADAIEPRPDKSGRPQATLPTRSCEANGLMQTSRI
Briefly: Subtype selectivity binding, rat SST-R5. How it is done:
as §1, §2

Assay [6] has as its target T2, human SST-R5 (Homo sapiens, UniProt P35346).
T2 construct: expressed in transfected cells; host or cells: CHO cells
Briefly: Inhibition of 125I-Tyr11-SRIF binding to cloned human SST-R5 membranes. The conditions noted are these: human cloned receptor; read-out: Concentration (nM) of SST analogs to inhibit SRIF binding by 50%, SST-R 5. As for the experimental part:
as §1

Assay [7] concerns the target T3, human SST-R1 (Homo sapiens, UniProt P30872).
T3 construct: expressed in transfected cells; host or cells: CHO cells
The assay is described as follows: Inhibition of 125I-Tyr11-SRIF binding to cloned human SST-R1 membranes. Particulars: human cloned receptor; read-out: Concentration (nM) of SST analogs to inhibit SRIF binding by 50%, SST-R 1. How it is done: as §1

Assay [8] has as its target T4, human SST-R4 (Homo sapiens, UniProt P31391).
T4 construct: expressed in transfected cells; host or cells: CHO cells
Briefly: Inhibition of 125I-Tyr11-SRIF binding to cloned human SST-R4 membranes. Particulars: human cloned receptor; read-out: Concentration (nM) of SST analogs to inhibit SRIF binding by 50%, SST-R 4. As for the experimental part: as §1

Assay [9] addresses T5, human cloned SST-R2 (Homo sapiens, UniProt P30874).
T5 construct: expressed in transfected cells; host or cells: CHO cells
Briefly: Inhibition of 125I-Tyr11-SRIF binding to cloned human SST-R2 membranes (CHO cells). The conditions noted are these: human cloned receptor; read-out: Concentration (nM) of SST analogs to inhibit SRIF binding by 50%, SST-R 2. How it is done:
as §1

Assay [10] deals with T6, human SST-R3 (Homo sapiens, UniProt P32745).
T6 construct: expressed in transfected cells; host or cells: CHO cells
Briefly: Inhibition of 125I-Tyr11-SRIF binding to cloned human SST-R3 membranes. Particulars: human cloned receptor; read-out: Concentration (nM) of SST analogs to inhibit SRIF binding by 50%, SST-R 3. How it is done:
as §1

[11] abbreviates: # rows: determined in rat somatostatin receptors, read-out: Concentration (nM) of SST analogs to inhibit SRIF binding by 50%, SST-R 4.
Where [12] appears, read: rat SST-R4, read-out: Selectivity: IC50, nM, rat SST-R-4.
Setting [13] is: # rows: determined in rat somatostatin receptors, read-out: Concentration (nM) of SST analogs to inhibit SRIF binding by 50%, SST-R 2.
Setting [14] is: rat SST-R2, read-out: Selectivity: IC50, nM, rat SST-R-2.
Where [15] appears, read: # rows: determined in rat somatostatin receptors, read-out: Concentration (nM) of SST analogs to inhibit SRIF binding by 50%, SST-R 1.
The mark [16] stands for this setting: rat SST-R1, read-out: Selectivity: IC50, nM, rat SST-R-1.
[17] abbreviates: # rows: determined in rat somatostatin receptors, read-out: Concentration (nM) of SST analogs to inhibit SRIF binding by 50%, SST-R 3.
Setting [18] is: rat SST-R3, read-out: Selectivity: IC50, nM, rat SST-R-3.
Where [19] appears, read: # rows: determined in rat somatostatin receptors, read-out: Concentration (nM) of SST analogs to inhibit SRIF binding by 50%, SST-R 5.
Where [20] appears, read: rat SST-R5, read-out: Selectivity: IC50, nM, rat SST-R-5.

Read-outs that look alike come from different tables or passages of the source.

rat SST-R3, sequence (P30936 whole entry): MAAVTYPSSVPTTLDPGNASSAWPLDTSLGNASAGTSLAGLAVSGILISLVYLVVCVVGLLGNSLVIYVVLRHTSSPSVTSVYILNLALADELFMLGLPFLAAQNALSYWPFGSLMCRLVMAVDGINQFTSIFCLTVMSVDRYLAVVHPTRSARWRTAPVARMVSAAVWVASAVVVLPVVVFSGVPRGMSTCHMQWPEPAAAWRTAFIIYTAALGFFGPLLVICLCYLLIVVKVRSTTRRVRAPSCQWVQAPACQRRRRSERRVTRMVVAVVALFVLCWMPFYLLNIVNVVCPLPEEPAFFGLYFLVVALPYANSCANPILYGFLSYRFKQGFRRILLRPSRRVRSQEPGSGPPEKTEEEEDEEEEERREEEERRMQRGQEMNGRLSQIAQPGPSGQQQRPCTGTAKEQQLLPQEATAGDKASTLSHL
rat SST-R1, sequence (P28646 whole entry): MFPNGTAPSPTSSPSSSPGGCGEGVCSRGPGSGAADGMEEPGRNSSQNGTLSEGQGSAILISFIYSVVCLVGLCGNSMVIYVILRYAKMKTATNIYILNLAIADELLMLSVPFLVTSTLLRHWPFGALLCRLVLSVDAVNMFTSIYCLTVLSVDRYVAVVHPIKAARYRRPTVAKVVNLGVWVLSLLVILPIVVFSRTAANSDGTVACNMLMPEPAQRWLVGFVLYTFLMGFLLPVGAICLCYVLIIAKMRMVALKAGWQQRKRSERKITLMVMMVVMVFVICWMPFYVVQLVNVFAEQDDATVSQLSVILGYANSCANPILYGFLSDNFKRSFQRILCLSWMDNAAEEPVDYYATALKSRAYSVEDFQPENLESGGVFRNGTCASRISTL
rat SST-R2, sequence (P30680 whole entry): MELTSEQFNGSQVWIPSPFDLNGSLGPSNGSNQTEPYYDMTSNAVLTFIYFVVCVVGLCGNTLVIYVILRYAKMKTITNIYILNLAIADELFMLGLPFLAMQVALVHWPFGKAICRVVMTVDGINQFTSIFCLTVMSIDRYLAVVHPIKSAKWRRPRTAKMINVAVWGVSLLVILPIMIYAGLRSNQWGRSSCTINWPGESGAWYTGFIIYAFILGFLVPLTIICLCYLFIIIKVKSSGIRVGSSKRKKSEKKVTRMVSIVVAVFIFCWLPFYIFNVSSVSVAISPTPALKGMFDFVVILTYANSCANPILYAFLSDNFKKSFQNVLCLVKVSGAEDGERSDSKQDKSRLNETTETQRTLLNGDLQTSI
rat SST-R4, sequence (P30937 whole entry): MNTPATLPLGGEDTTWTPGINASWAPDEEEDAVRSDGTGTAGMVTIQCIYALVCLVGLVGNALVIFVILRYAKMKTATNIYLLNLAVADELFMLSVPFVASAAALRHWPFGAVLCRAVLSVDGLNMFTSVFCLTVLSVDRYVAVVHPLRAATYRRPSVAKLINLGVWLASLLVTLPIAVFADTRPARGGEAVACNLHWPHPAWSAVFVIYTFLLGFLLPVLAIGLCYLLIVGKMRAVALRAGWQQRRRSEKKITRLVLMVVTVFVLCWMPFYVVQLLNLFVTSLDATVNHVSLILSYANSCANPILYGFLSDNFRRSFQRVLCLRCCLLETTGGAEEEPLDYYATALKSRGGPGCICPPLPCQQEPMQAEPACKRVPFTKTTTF
T5 sequence (P30874 whole entry): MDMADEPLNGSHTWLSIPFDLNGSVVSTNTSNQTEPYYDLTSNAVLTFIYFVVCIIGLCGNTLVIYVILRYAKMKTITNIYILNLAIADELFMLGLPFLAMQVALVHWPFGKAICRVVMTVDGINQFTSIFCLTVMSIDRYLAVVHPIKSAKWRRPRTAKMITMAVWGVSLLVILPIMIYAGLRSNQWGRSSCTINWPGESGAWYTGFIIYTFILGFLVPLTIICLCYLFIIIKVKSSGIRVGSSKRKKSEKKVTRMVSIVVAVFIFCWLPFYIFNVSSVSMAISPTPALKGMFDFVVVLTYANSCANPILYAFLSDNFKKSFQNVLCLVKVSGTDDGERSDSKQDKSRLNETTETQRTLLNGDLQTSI
T3 sequence (P30872 whole entry): as the sequence (P28646 whole entry) above, with P8S, T11S, S16P, G20S, V25G, C26G, S32A, S45A, A385T, S389T counted along it
T4 sequence (P31391 whole entry): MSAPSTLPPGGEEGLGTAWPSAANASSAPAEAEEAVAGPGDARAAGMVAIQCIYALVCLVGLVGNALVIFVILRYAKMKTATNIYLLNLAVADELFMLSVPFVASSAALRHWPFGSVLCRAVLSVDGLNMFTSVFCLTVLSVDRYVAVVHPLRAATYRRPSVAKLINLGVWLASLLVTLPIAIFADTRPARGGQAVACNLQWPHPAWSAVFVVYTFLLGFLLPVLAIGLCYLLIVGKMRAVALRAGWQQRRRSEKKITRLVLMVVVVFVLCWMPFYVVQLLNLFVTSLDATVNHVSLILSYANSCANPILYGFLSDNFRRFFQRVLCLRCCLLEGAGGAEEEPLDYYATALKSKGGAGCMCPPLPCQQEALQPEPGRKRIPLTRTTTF
T2 sequence (P35346 whole entry): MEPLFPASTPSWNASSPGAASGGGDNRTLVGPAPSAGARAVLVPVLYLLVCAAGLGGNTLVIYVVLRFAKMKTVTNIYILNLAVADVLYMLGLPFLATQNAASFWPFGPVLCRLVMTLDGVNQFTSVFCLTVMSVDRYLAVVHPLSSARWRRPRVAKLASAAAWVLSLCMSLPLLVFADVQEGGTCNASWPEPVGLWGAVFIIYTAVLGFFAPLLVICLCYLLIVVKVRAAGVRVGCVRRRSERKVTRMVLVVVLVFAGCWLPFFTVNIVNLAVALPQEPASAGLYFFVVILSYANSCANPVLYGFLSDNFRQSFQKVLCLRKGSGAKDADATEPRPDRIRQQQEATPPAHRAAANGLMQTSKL
T6 sequence (P32745 whole entry): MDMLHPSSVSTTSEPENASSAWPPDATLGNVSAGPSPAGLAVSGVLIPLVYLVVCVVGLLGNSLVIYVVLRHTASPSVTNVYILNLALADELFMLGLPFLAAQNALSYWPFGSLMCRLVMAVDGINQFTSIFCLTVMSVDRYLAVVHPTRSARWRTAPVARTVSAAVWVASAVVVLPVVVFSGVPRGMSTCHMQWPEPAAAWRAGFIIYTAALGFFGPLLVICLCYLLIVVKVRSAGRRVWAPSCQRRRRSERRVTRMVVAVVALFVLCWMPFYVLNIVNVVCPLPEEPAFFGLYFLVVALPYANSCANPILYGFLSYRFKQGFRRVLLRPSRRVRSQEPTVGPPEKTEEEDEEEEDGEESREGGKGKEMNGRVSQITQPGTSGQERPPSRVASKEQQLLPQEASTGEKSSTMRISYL

On to “ReO-MA-Dpr(Gly)-βAla-Dab*-Phe-Trp-(D)Trp-Lys-Thr-Phe-GlyC3*-NH2 [PTR 3399]”, for which the IC50 in assay [1] (setting [11]) came out at 15 nM; in assay [1] (setting [12]), 15 nM; in assay [2] (setting [13]) it was 1.6 nM; in assay [2] (setting [14]), 1.6 nM; in assay [3] (setting [15]) it was 156 nM; in assay [3] (setting [16]), 156 nM. Besides, the IC50 in assay [4] (setting [17]) came to 103 nM; in [4] (setting [18]), 103 nM; in [5] (setting [19]) it was 1.3 nM; in [5] (setting [20]) it was 1.3 nM. Further, the “binding to SST-R5 (in words)” value in [5] is on record as “binds”.
“ReO-MA-Dpr(Gly)-Gly-Dab*-Phe-Trp-(D)Trp-Lys-Thr-Phe-GlyC3*-NH2 [ReO-3397]”: the IC50 is 3.3 nM in assay [1] (setting [11]); 3.3 nM in assay [1] (setting [12]); 0.25 nM in assay [2] (setting [13]); 0.25 nM in [2] (setting [14]); 89 nM in assay [3] (setting [15]); 89 nM in [3] (setting [16]). Moreover, the IC50 turned out to be 76 nM in assay [4] (setting [17]), 76 nM in assay [4] (setting [18]), 2.2 nM in [5] (setting [19]) and 2.2 nM in assay [5] (setting [20]).
As to “ReO-MA-Gly-Gly-Gly-6-aminohexanoic acid-Dab*-Phe-Trp-(D)Trp-Lys-Thr-Phe-GlyC3*-NH2 [PTR 3401]”, the IC50 in assay [1] (setting [11]) came to 20 nM; in assay [1] (setting [12]) it was 20 nM; in assay [2] (setting [13]), 0.44 nM; in assay [2] (setting [14]), 0.44 nM; in assay [3] (setting [15]), 402 nM; in [3] (setting [16]), 402 nM. For the same molecule, the IC50 in assay [4] (setting [17]) was found to be 110 nM; in assay [4] (setting [18]), 110 nM; in [5] (setting [19]), 3.7 nM; in assay [5] (setting [20]), 3.7 nM.
Turning to `C[C@@H](O)[C@@H]1NC(=O)[C@H](CCCCN)NC(=O)[C@@H](Cc2c[nH]c3ccccc23)NC(=O)[C@H](Cc2ccccc2)NC(=O)[C@@H]2CSSC[C@H](NC1=O)C(=O)N([C@@H](Cc1ccccc1)C(N)=O)CCCNC(=O)CCCN[C@@H](Cc1ccccc1)C(=O)N2` [PTR 3205, PheC3-Cys-Phe-(D)Trp-Lys-Thr-Cys-PheN3-NH2], the IC50 in assay [6] stood at 186 nM; in assay [7], 349 nM; in assay [8] it was 123 nM; in [9] it was 1.5 nM; in assay [10], 323 nM.
